Measurements from PubChem BioAssay AID2060331 (Molecular Pharmacology Branch, DTP, NCI, 2025).
Several values for one entry are separate records, joined by “and”; a condition that tells them apart may be missing. Equal entries are not always repeated.

System: Hs578T multi-cell spheroids, viability
Assay: Anticancer human tumor Hs578T cell line growth inhibition [IpAb];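 note: drug exposure lasted 7 days before readout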
Conditions: for viability, T/C: stronger effect = lower value
Description: Combinatorial screen of targeted agents with ipatasertib and abemaciclib in multi-cell type tumor spheroids
A high-throughput screen of multi-cell type tumor spheroids was designed to identify active combinations of targeted small molecules and ipatasertib or abemaciclib. Complex spheroids include a stromal component modeled by human endothelial cells (HUVEC) and fibroblasts modeled by human mesenchymal stem cells (MSCs). The concentration ranges selected for each drug and investigational agent were based upon clinically achievable concentrations if the clinical Cmax of the agent was known.
Compounds. The drugs and investigational agents: ipatasertib (NSC767898), abemaciclib(NSC768073), selumetinib (NSC741078), trametinib (758246), adavosertib (NSC754352), everolimus (NSC733504), sapanisertib (NSC764658), vemurafenib (NSC761431), venetoclax (NSC766270), copanlisib (NSC809693), apelisib (NSC765974), palbociblib (NSC758247), vemurafenib (NSC761431), dabrafenib (NSC764134), ravoxertinib (NSC781343), BMS-387032 (NSC767048), sotorasib (NSC818433), talazoparib (NSC767125) and afursertib (NSC778305), were obtained from the National Cancer Institute (NCI) Developmental Therapeutics Program Chemical Repository. The FDA-approved anticancer drug set is available from the NCI Developmental Therapeutics Program. […] The stock solutions were prepared in dimethyl sulfoxide (DMSO, Sigma-Aldrich, St. Louis, MO, cat. D2650) at 800-fold the tested concentration and stored at -70 degrees C prior to their use. All drugs and investigational agents were tested over a range starting from a high concentration at or near the clinical Cmax and decreasing in half-log increments. If the clinical Cmax for an agent had not been determined, the highest concentration tested was 10 microM.
NCI60 Cell Culture. NCI60 cell lines were obtained from the NCI Developmental Therapeutics Program Tumor Repository. For each lot of cells, the Repository performed Applied Biosystems AmpFLSTR Identifiler testing with PCR amplification to confirm consistency with the published Identifier STR profile for each cell line. Cells were kept in continuous culture for no more than 20 passages. The optimal seeding densities for each of the cell lines at each time point assessed were determined prior to performing the concentration response studies. Briefly, the NCI60 human tumor lines were grown as monolayers in RPMI 1640 medium supplemented with 10% FBS and 2 mmol/L L-glutamine.
An additional 9 lines were from the NCI60 cell line panel including MDA-MB-231 breast carcinoma, MDA-MB-468 breast carcinoma, MCF7 breast carcinoma, Hs578T breast carcinoma, MALME-3M melanoma, SK-MEL-2 melanoma, SK-OV-3 ovarian carcinoma, DU-145 prostate carcinoma, PC-3 prostate carcinoma, all cell lines along with major genetic alterations are listed on Table 2. Pooled donor human umbilical vein endothelial cells (HUVEC, Lonza, cat. CC-2519) and human mesenchymal stem cells (hMSC, Lonza, cat. PT-2501) were purchased from Lonza (Walkersville, MD).
PDMR cell lines were grown in complete medium (DC medium): Dulbecco's modified Eagle's medium (DMEM)/F12 supplemented with 5% fetal bovine serum (FBS), 2 mM L-glutamine, 100 U/mL penicillin and 100 µg/ml streptomycin, 0.4 µg/ml hydrocortisone, 10 ng/ml epidermal growth factor (EGF) recombinant human protein, 24 µg/mL adenine, and 0.1 mg/mL primocin. During culture from frozen stock vials, PDMR cells were cultured in the same medium containing 10 µM Y-27632 (see Table 3). The PDCs were cultured in complete DMEM/F12 media without 10 microM Y-27632 dihydrochloride for at least two passages prior to the screen. The pooled donor HUVEC and hMSC were cultured in endothelial cell growth medium 2 (PromoCell, Heidelberg, Germany, cat. C-22011) and mesenchymal stem cell growth medium 2 (PromoCell, cat. C-28009), respectively. For all experiments, HUVEC and hMSC were used at passages </=5.
[…]

In the case of Cc1nc(NC(=O)N2CCCC2C(N)=O)sc1-c1ccnc(C(C)(C)C(F)(F)F)c1 (stereo not given), the viability, T/C (compound 0.0316 µM) is reported as 96.6% and 110%, the viability, T/C (compound 0.1 µM) is reported as 93.1% and 95.3% and the viability, T/C (compound 0.316 µM) is reported as 79.6% and 79.2%. For the same molecule, the viability, T/C (compound 1 µM) was 60% and 58.8%, the viability, T/C (compound 3.16 µM) was 42.5% and 45.5% and the viability, T/C (compound 10 µM) was 13.9% and 16.4%. For the same molecule, the IC50 (curve of compound) was 1.93 µM and 1.9 µM.
With Cn1cnc2c(F)c(Nc3ccc(Br)cc3Cl)c(C(=O)NOCCO)cc21 the viability, T/C (compound 0.00949 µM) was 102% and 100%, the viability, T/C (compound 0.03 µM) was 104% and 97.5% and the viability, T/C (compound 0.0949 µM) was 104% and 96%. The viability, T/C (compound 0.3 µM) was 89.2% and 88.1%, the viability, T/C (compound 0.949 µM) was 79.1% and 75% and the viability, T/C (compound 3 µM) was 56.1% and 48.7%. For the same molecule, the IC50 (curve of compound) was > 3 µM and 2.85 µM.
Cn1ncc(Cl)c1-c1cc(C(=O)NC(CN)Cc2cccc(F)c2)sc1Cl (stereo not given) was tested, and the viability, T/C (compound 0.0316 µM) was 90.4% and 98.8%, the viability, T/C (compound 0.1 µM) was 91% and 85.1% and the viability, T/C (compound 0.316 µM) was 72.4% and 75.8%. The viability, T/C (compound 1 µM) was 60.7% and 63.9%, the viability, T/C (compound 3.16 µM) was 49.9% and 56.1% and the viability, T/C (compound 10 µM) was 0.22% and 0.31%. The IC50 (curve of compound) was 2.18 µM and 2.65 µM.
In the case of Cn1nccc1Nc1nccc(-c2ccn(C(CO)c3ccc(Cl)c(F)c3)c(=O)c2)n1 (stereo not given), the viability, T/C (compound 0.0316 µM) is reported as 104% and 107%, the viability, T/C (compound 0.1 µM) is reported as 114% and 115% and the viability, T/C (compound 0.316 µM) is reported as 118% and 128%. The viability, T/C (compound 1 µM) was 90.7% and 94%, the viability, T/C (compound 3.16 µM) was 70.3% and 65.2% and the viability, T/C (compound 10 µM) was 24.4% and 35.9%. The IC50 (curve of compound) was 5.13 µM and 5.58 µM.
Cn1ncnc1[C@H]1c2n[nH]c(=O)c3cc(F)cc(c23)N[C@@H]1c1ccc(F)cc1 was tested, and the viability, T/C (compound 0.000316 µM) was 94% and 104%, the viability, T/C (compound 0.001 µM) was 101% and 102% and the viability, T/C (compound 0.00316 µM) was 88% and 103%. The viability, T/C (compound 0.01 µM) was 91.7% and 96.2%, the viability, T/C (compound 0.0316 µM) was 90.2% and 96.4% and the viability, T/C (compound 0.1 µM) was 82.2% and 95.2%. The IC50 (curve of compound) was over 0.1 µM.
Cn1cnc2c(F)c(Nc3ccc(Br)cc3Cl)c(C(=O)NOCCO)cc21 + CC(C)NCC(C(=O)N1CCN(c2ncnc3c2C(C)CC3O)CC1)c1ccc(Cl)cc1 was tested, and the IC50 (curve of first compound, second compound 0.1 µM) was 2.31 µM, the IC50 (curve of first compound, second compound 0.316 µM) was 1.2 µM and the IC50 (curve of first compound, second compound 1 µM) was 0.4 µM. For the same molecule, the IC50 (curve of first compound, second compound 3.16 µM) was 0.123 µM, the IC50 (curve of first compound, second compound 10 µM) was 0.0265 µM and the viability, T/C (second compound 0.1 µM, first compound 0.00949 µM) was 96.2%. For the same molecule, the viability, T/C (second compound 0.1 µM, first compound 0.03 µM) was 91.8%, the viability, T/C (second compound 0.1 µM, first compound 0.0949 µM) was 85.3% and the viability, T/C (second compound 0.1 µM, first compound 0.3 µM) was 84.2%. The viability, T/C (second compound 0.1 µM, first compound 0.949 µM) was 74.8%, the viability, T/C (second compound 0.1 µM, first compound 3 µM) was 42.8% and the viability, T/C (second compound 0.316 µM, first compound 0.00949 µM) was 87.7%. The viability, T/C (second compound 0.316 µM, first compound 0.03 µM) was 86.2%, the viability, T/C (second compound 0.316 µM, first compound 0.0949 µM) was 83.4% and the viability, T/C (second compound 0.316 µM, first compound 0.3 µM) was 64.9%. For the same molecule, the viability, T/C (second compound 0.316 µM, first compound 0.949 µM) was 58%, the viability, T/C (second compound 0.316 µM, first compound 3 µM) was 30.4% and the viability, T/C (second compound 1 µM, first compound 0.00949 µM) was 77%. It also gave a viability, T/C (second compound 1 µM, first compound 0.03 µM) of 72%, a viability, T/C (second compound 1 µM, first compound 0.0949 µM) of 63.1% and a viability, T/C (second compound 1 µM, first compound 0.3 µM) of 54.4%. It also gave a viability, T/C (second compound 1 µM, first compound 0.949 µM) of 39.2%, a viability, T/C (second compound 1 µM, first compound 3 µM) of 19.3% and a viability, T/C (second compound 3.16 µM, first compound 0.00949 µM) of 53.8%. The viability, T/C (second compound 3.16 µM, first compound 0.03 µM) was 52.2%, the viability, T/C (second compound 3.16 µM, first compound 0.0949 µM) was 47.9% and the viability, T/C (second compound 3.16 µM, first compound 0.3 µM) was 49.4%. For the same molecule, the viability, T/C (second compound 3.16 µM, first compound 0.949 µM) was 35.2%, the viability, T/C (second compound 3.16 µM, first compound 3 µM) was 12.4% and the viability, T/C (second compound 10 µM, first compound 0.00949 µM) was 52.6%. The viability, T/C (second compound 10 µM, first compound 0.03 µM) was 50.1%, the viability, T/C (second compound 10 µM, first compound 0.0949 µM) was 42.2% and the viability, T/C (second compound 10 µM, first compound 0.3 µM) was 43.1%. The viability, T/C (second compound 10 µM, first compound 0.949 µM) was 23.2% and the viability, T/C (second compound 10 µM, first compound 3 µM) was 5.18%.
